According to US11339158B2, “Crystalline form of valbenazine ditosylate, processes for preparation thereof and use thereof” (Crystal Pharmaceutical (Suzhou) Co., Ltd., priority 2017, dated 2022):
Values after ≈ are worked out from the molar mass of the structure shown. “Also recorded” adds a separate entry of the source. Where two headings read alike, the source gives them in different places. Values belong to the compound of their own block, whether it stands above or below them.

Tests used:
Type in all cases: physicochemical
[1] = Flowability (compressibility index / Carr Index); conditions: for Carr Index: c=(ρf−ρ0)/ρf; for Flowability: criteria of ICH Q4B Annex 13
Procedure: Compressibility index or Carr Index is usually utilized to evaluate the flowability of powder and granules during the drug product process. Compressibility index test method is as follows: a certain amount of powder was added into a measuring cylinder and bulk volume was recorded. Then the powder was tapped to make it in the tightest state and the tapped volume was recorded. The bulk density (ρ0), tapped density (ρf) were calculated and compressibility index was calculated according to c=(ρf−ρ0)/ρf.

[2] = Stability of Form A drug substance (XRPD and HPLC); conditions: for Change in solid form: XRPD; for Change in purity %: HPLC
Procedure: Four samples of Form A in the present disclosure was stored under different conditions of 25° C./60% RH in open and closed dishes for 3 months, 40° C./75% RH in closed dish for 3 months and 60° C./75% RH in closed dish for 1 week. Crystalline form and chemical impurity were checked by XRPD and HPLC, respectively.

[3] = Mechanical stability (tableting at 15 kN, XRPD); conditions: compressed at 15 kN, held 1 minute
Procedure: About 0.1 g of Form A was added into a die, compressed at 15 kN, and held for 1 minute. And then the pressure was released and the sample in the die was taken out for XRPD test. […] The XRPD pattern is substantially as depicted in FIG. 9.

[4] = Kinetic solubility in FaSSIF and FeSSIF; conditions: for solubility kinetic at 15 min / solubility kinetic at 30 min / solubility kinetic at 1 h: thermodynamic from solid, read-out: Kinetic solubility (concentration of saturated solution); for Kinetic solubility (concentration of saturated solution): listed as Prior art Form I
Procedure: High Performance Liquid Chromatography (HPLC) data in the present disclosure were collected from an Agilent 1260 with Diode Array Detector (DAD).
The HPLC method parameters for solubility test and dissolution tests in the present disclosure are as follows: • 1. Column: Waters XBridge C18 150×4.6 mm, 5 μm • 2. Mobile Phase: A: 0.1% TFA in H2O • B: 0.1% TFA in Acetonitrile
• 3. Flow rate: 1.0 mL/min • 4. Injection Volume: 10 μL • 5. Detection wavelength: 230 nm • 6. Column Temperature: 40° C. • 7. Diluent: Acetonitrile: H2O (v:v)=50:50
Simulated intestinal fluids, such as FaSSIF (fasted state simulated intestinal fluids) and FeSSIF (fed state simulated intestinal fluids) are biorelevant media. These media can better reflect the drug release affected by gastrointestinal environment. Solubility in such media is close to in vivo solubility.
20 mg of Form A in the present disclosure and 20 mg of prior art Form I were suspended in 1.5 mL of FaSSIF and 1.5 mL of FeSSIF to get saturated solutions. After equilibrium for 15 minutes, 30 minutes and 1 hour, concentrations of the saturated solutions (mg/mL) were measured by HPLC.

[5] = Hygroscopicity (Chinese Pharmacopoeia 2015, general notice 9103); conditions: for Percentage gain (weight gain, hygroscopicity): 25±1° C., relative humidity 80%±2%, 24 hours
Procedure: The hygroscopicity experiment was conducted according to general notice 9103 drug hygroscopicity test guidelines in 2015 edition of Chinese Pharmacopoeia. The methods are listed as follows: • 1. A dry weighing bottle with a stopper (outer diameter is 50 mm and the height is 15 mm) was placed in a suitable desiccator at constant temperature of 25±1° C. (saturated solution of ammonium chloride or ammonium sulfate was placed in the lower compartment) or the a man-made climate chamber (the temperature is set as 25°±C. 1° C. and the relative humidity is 80%±2%) the day before the test. The weight is accurately weighed (m1). • 2. A suitable amount of the sample was spread into the weighing bottle. The thickness of the sample is generally about 1 mm, and the weight is accurately weighed (m2). • 3. The weighing bottle was kept open and placed under the same constant temperature and humidity mentioned above for 24 hours as well as the stopper. • 4. T The stopper was put on the weighing bottle, and then the weighing bottle with stopper was accurately weighed (m3).
The hygroscopicity of Form A in the present disclosure and Form I in prior art was tested.

[6] = Adhesiveness (material sticking to the punch); conditions: for Cumulative amount (mg) sticking to the punch / Maximum amount (mg) sticking to the punch: 30 mg, φ8 mm round tooling, 10 kN, 30 s, repeated compression
Procedure: 30 mg of Form A and Form I in prior art were added into the dies of φ8 mm round tooling, compressed at 10 kN and held for 30 s. The punch was weighed and amount of material sticking to the punch was calculated. The compression was repeated several times to record the cumulative amount, maximum amount and average amount of material sticking to the punch during compression process.

[7] = Crystalline form after formulation process (XRPD of capsule); conditions: Form A in capsule
Procedure: The preparation process is described in Table 8.
The crystalline form of Form A in capsule was tested by XRPD. […] The XRPD pattern is substantially as depicted in FIG. 10.

[8] = Compressibility (tensile strength); conditions: Φ6 mm round tooling, 80 mg, 10 kN; for Tensile strength (MPa): T=2H/πDL; for Diameter (mm) / Thickness (mm): after 24 h
Procedure: A manual tablet press was used for compression. A certain amount of Form A and prior art Form I were added into the dies of round tooling (Ensuring the isotropy of the tablet), compressed at suitable pressure, and then stored at room temperature for 24 h until complete elastic recovery. Hardness (H) was tested with Intelligent Tablet Hardness Tester. Diameter (D) and thickness (L) were tested with caliper. Tensile strength of the powder was calculated with the following formula: T=2H/πDL. Under a certain force, the greater the tensile strength, the better the compressibility.

[9] = 25° C./60% RH in open dish, 3 months
[10] = 40° C./75% RH in closed dish, 3 months
[11] = 60° C./75% RH in closed dish, 1 week

Bulk density [1]: 0.179 g/mL | Tap density [1]: 0.209 g/mL | Carr Index [1]: 14% | Flowability [1]: Good (11-15) | Time physically and chemically stable ([2]; 25° C./60% RH in closed dish): at least 3 months | Time physically and chemically stable ([2]; 25° C./60% RH in open dish): at least 3 months | Change in purity % [2, 9]: 0.03% | Time physically and chemically stable ([2]; 40° C./75% RH in closed dish): at least 3 months | Change in purity % [2, 10]: 0.09% | Time stable ([2]; 60° C./75% RH in closed dish): at least 1 week | Change in purity % [2, 11]: 0.08% | solubility kinetic at 15 min ([4]; FaSSIF, FaSSIF, 15 minutes): 31.4 mg/mL (≈ 75.1 mM) | solubility kinetic at 30 min ([4]; FaSSIF, FaSSIF, 30 minutes): 31.3 mg/mL (≈ 74.8 mM) | solubility kinetic at 1 h ([4]; FaSSIF, FaSSIF, 1 hour): 31.8 mg/mL (≈ 76 mM) | Solubility of Form A relative to prior art Form I ([4]; FeSSIF): 1.23 times | solubility kinetic at 15 min ([4]; FeSSIF, FeSSIF, 15 minutes): 41.9 mg/mL (≈ 100 mM) | solubility kinetic at 30 min ([4]; FeSSIF, FeSSIF, 30 minutes): 41.7 mg/mL (≈ 99.5 mM) | solubility kinetic at 1 h ([4]; FeSSIF, FeSSIF, 1 hour): 41.3 mg/mL (≈ 98.6 mM) | Hygroscopicity relative to prior art form ([5]; Chinese Pharmacopoeia hygroscopicity test): 3/5 | Cumulative amount (mg) sticking to the punch [6]: 0.06 mg | Maximum amount (mg) sticking to the punch [6]: 0.17 mg | Tensile strength (MPa) [8]: 1.36 MPa | Diameter (mm) [8]: 6.11 mm | Thickness (mm) [8]: 2.33 mm
SMILES: COc1cc2c(cc1OC)[C@H]1C[C@@H](OC(=O)[C@@H](N)C(C)C)[C@H](CC(C)C)CN1CC2 [Form A, (S)-2-amino-3-methyl-butyric acid (2R,3R,11bR)-3-isobutyl-9,10-dimethoxy-1,3,4,6,7,11b-hexahydro-2H-pyrido[2,1-a]isoquinolin-2-yl ester]
Change in solid form ([2]; 25° C./60% RH in closed dish, 3 months): doesn't change; also recorded: No form change | Change in solid form [2, 9]: doesn't change; also recorded: No form change | Change in solid form [2, 10]: doesn't change; also recorded: No form change | Change in solid form [2, 11]: doesn't change; also recorded: No form change | Form change after tableting [3]: doesn't change; also recorded: no form change is observed | Form change of Form A after formulation process [7]: no form change was observed; also recorded: doesn't change

Bulk density [1]: 0.144 g/mL | Tap density [1]: 0.174 g/mL | Carr Index [1]: 17% | Flowability [1]: Fair (16-20) | Kinetic solubility (concentration of saturated solution) ([4]; FaSSIF, 15 minutes): 30.637 mg/mL | Kinetic solubility (concentration of saturated solution) ([4]; FaSSIF, 30 minutes): 30.189 mg/mL | Kinetic solubility (concentration of saturated solution) ([4]; FaSSIF, 1 hour): 31.010 mg/mL | Kinetic solubility (concentration of saturated solution) ([4]; FeSSIF, 15 minutes): 34.054 mg/mL | Kinetic solubility (concentration of saturated solution) ([4]; FeSSIF, 30 minutes): 34.628 mg/mL | Kinetic solubility (concentration of saturated solution) ([4]; FeSSIF, 1 hour): 35.012 mg/mL | Percentage gain (weight gain, hygroscopicity) ([5]; listed as Form I in prior art): 0.40% | Percentage gain (weight gain, hygroscopicity) ([5]; listed as prior art Form I): 0.40% | Maximum amount sticking to the punch, Form I relative to Form A [6]: more than 3 times | Cumulative amount (mg) sticking to the punch [6]: 0.21 mg | Maximum amount (mg) sticking to the punch [6]: 7.58 mg | Tensile strength (MPa) [8]: 0.86 MPa | Diameter (mm) [8]: 6.04 mm | Thickness (mm) [8]: 2.30 mm
SMILES: COc1cc2c(cc1OC)[C@H]1C[C@@H](OC(=O)[C@@H](N)C(C)C)[C@H](CC(C)C)CN1CC2 [Form I, (S)-2-amino-3-methyl-butyric acid (2R,3R,11bR)-3-isobutyl-9,10-dimethoxy-1,3,4,6,7,11b-hexahydro-2H-pyrido[2,1-a]isoquinolin-2-yl ester, reference compound]
